According to the Kinase Knowledgebase extract (Sharma et al. 2016):

These compounds were tested against MAPK14 (UniProt Q16539) (assay: Inhibition of MAPK14 Kinase Activity).
MAPK14, sequence (Q16539 whole entry, looked up): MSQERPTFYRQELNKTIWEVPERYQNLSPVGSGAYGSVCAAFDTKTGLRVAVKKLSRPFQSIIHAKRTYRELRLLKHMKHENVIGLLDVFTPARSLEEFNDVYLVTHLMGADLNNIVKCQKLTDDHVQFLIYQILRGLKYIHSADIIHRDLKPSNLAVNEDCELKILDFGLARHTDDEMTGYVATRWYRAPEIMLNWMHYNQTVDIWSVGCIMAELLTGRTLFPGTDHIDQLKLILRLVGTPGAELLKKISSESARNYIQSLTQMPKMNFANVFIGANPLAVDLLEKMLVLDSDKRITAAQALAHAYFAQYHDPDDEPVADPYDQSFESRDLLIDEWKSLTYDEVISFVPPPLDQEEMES

Going from `Cc1ccccc1-c1cccc(N(Cc2c(Cl)cccc2Cl)C(N)=O)n1` to `NC(=O)N(Cc1c(Cl)cccc1Cl)c1cccc(-c2ccccc2Cl)n1`, the IC50 rises from 8.91 µM to over 100 µM.

`NC(=O)N(Cc1ccccc1Cl)c1cccc(-c2ccc(Cl)cc2)n1` and `NC(=O)N(Cc1ccccc1Cl)c1cccc(-c2ccc(F)cc2)n1` cannot be ordered by IC50: over 100 µM for the first, over 100 µM for the second.

`NC(=O)N(Cc1c(F)cccc1F)c1ccc(CO)c(-c2ccc(F)cc2F)n1` and `Cc1cc(F)ccc1-c1nc(N(Cc2c(F)cccc2F)C(N)=O)ccc1CO` are within 1.5-fold of each other in IC50: 1.58 µM for the first, 2.2 µM for the second.

`Cc1ccccc1-c1cccc(N(Cc2c(F)cccc2F)C(N)=O)n1` and `Cc1cc(F)ccc1-c1cccc(N(Cc2c(F)cccc2F)C(N)=O)n1` are within 1.5-fold of each other in IC50: 3.16 µM for the first, 2.81 µM for the second.

First: NC(=O)N(Cc1ccccc1Cl)c1cccc(-c2cccc(F)c2)n1
Second: Cc1cc(F)ccc1-c1cccc(N(Cc2ccccc2Cl)C(N)=O)n1
The IC50 of the first is lower: 79.4 µM for the first, over 100 µM for the second.

Compared with `NC(=O)N(Cc1ccccc1F)c1cccc(-c2ccccc2Cl)n1`, `NC(=O)N(Cc1ccccc1Cl)c1cccc(-c2ccccc2F)n1` is higher in IC50: 0.961 µM for the first, over 100 µM for the second.

`Cc1ccccc1-c1nc(N(Cc2c(Cl)cccc2Cl)C(N)=O)ccc1CO` and `NC(=O)N(Cc1c(Cl)cccc1Cl)c1ccc(CO)c(-c2ccccc2Cl)n1` cannot be ordered by IC50: over 100 µM for the first, over 100 µM for the second.

`NC(=O)N(Cc1ccc(F)cc1)c1cccc(-c2ccccc2Cl)n1` and `NC(=O)N(Cc1cccc(F)c1)c1cccc(-c2ccccc2Cl)n1` are within 1.5-fold of each other in IC50: 1.13 µM for the first, 1.12 µM for the second.

First: NC(=O)N(Cc1ccccc1)c1cccc(-c2ccccc2Cl)n1
Second: NC(=O)N(Cc1ccccc1Cl)c1cccc(-c2ccccc2Cl)n1
The IC50 of the first is 3.1-fold higher: 2.8 µM for the first, 0.9 µM for the second.

First: Cc1cc(C)cc(-c2cccc(N(Cc3ccccc3Cl)C(N)=O)n2)c1
Second: Cc1ccccc1-c1cccc(N(Cc2ccccc2Cl)C(N)=O)n1
The IC50 of the first is higher: over 100 µM for the first, 0.873 µM for the second.

Going from `Cc1ccccc1-c1cccc(N(Cc2cccc(F)c2)C(N)=O)n1` to `Cc1cc(F)ccc1-c1cccc(N(Cc2cccc(F)c2)C(N)=O)n1`, the IC50 rises from 0.751 µM to 1.25 µM (1.7-fold).

`COc1ccccc1-c1cccc(N(Cc2ccccc2F)C(N)=O)n1` and `COc1ccccc1-c1cccc(N(Cc2ccccc2Cl)C(N)=O)n1` cannot be ordered by IC50: over 100 µM for the first, over 100 µM for the second.

`NC(=O)N(Cc1ccccc1Cl)c1cccc(-c2cc(F)ccc2F)n1` and `NC(=O)N(Cc1ccc(Cl)cc1Cl)c1cccc(-c2ccccc2Cl)n1` are within 1.5-fold of each other in IC50: 35.5 µM for the first, 25.1 µM for the second.

Compared with `Cc1cc(F)ccc1-c1nc(N(Cc2c(Cl)cccc2Cl)C(N)=O)ccc1CO`, `Cc1cc(F)ccc1-c1cccc(N(Cc2c(Cl)cccc2Cl)C(N)=O)n1` is 47-fold lower in IC50: 100 µM for the first, 2.15 µM for the second. The second is the more potent here.

`COc1ccc(-c2cccc(N(Cc3ccccc3F)C(N)=O)n2)cc1` and `NC(=O)N(Cc1ccccc1F)c1cccc(-c2ccc(Cl)cc2)n1` cannot be ordered by IC50: over 100 µM for the first, over 100 µM for the second.

Compared with `NC(=O)N(Cc1ccccc1F)c1ccc(CO)c(-c2ccccc2Cl)n1`, `NC(=O)N(Cc1c(F)cccc1F)c1ccc(CO)c(-c2ccccc2Cl)n1` is higher in IC50: 1 µM for the first, over 100 µM for the second. The first is the more potent here.

First: NC(=O)N(Cc1c(Cl)cccc1Cl)c1cccc(-c2c(F)cccc2F)n1
Second: NC(=O)N(Cc1ccccc1F)c1cccc(-c2ccc(F)cc2)n1
The IC50 of the first is lower: 12.6 µM for the first, over 100 µM for the second. The first is the more potent here.

`Cc1ccccc1-c1cccc(N(Cc2ccccc2F)C(N)=O)n1` and `Cc1ccccc1-c1cccc(N(CCc2ccccc2)C(N)=O)n1` are within 1.5-fold of each other in IC50: 0.888 µM for the first, 0.978 µM for the second.

Compound `NC(=O)N(Cc1ccc(Cl)cc1Cl)c1cccc(-c2ccc(Cl)cc2)n1` has an IC50 of 100 µM.
